Where two headings read alike, the source gives them in different places.

The target of this assay is T1, human cGAS (residues 161-522) (Homo sapiens, UniProt Q8N884).
T1 construct: Recombinantly expressed purified human cGAS (residues 161-522) was used at 25 nM; made in house
Kind of assay: cGAS Activity Assay—Malachite Green. Format: biochemical. Here is the method: Compounds were tested for cGAS inhibition in a coupled enzymatic assay based on Phosphate detection by Malachite Green. Final assay conditions were 20 mM TRIS pH 7.5 (Applichem), 5 mM MgCl2 (Sigma) and 0.01% BSA (Sigma) supplemented with 80 μM ATP (Sigma), 80 μM GTP (Sigma) and 100 nM Interferon Stimulating DNA (ISD) (Microsynth).
1 μL of DMSO dilution series was transferred to 32.3 μL reaction buffer, mixed by pipetting up/down, spun for 1 minute at 3000 rpm and was visually inspected for precipitation. 5 μL of 3-fold enzyme stock solution were transferred to an empty 384-well Black/Clear Flat Bottom Polystyrene NBS (Corning) rows 3-24. Rows 1-2 were filled with assay buffer. Plates were spun 10 seconds at 1000 rpm (164×g). 5 μL of compound intermediate dilution was added and mixed by pipetting up/down to rows 3-24. Rows 1-2 were filled with 3.1% DMSO assay buffer. Plates were spun 10 seconds at 1000 rpm (164×g). 5 μL 3-fold Nucleotide/DNA mix was added to all wells to start the reaction. Plates were spun 10 seconds at 1000 rpm (164×g) and incubated for 4 hour at room temperature (RT) in the dark. 5 μL 4 U/mL PPase (Sigma) were added to all wells. Plates spun 10 seconds at 1000 rpm (164×g). 10 μL BioMol green Solution (Enzo Life Sciences) was added to all wells. Plates spun 10 seconds at 1000 rpm (164×g) and incubated 30 minutes at RT in the dark. Absorbance data was collected 620 nm on an EnVision Multilable Reader (Perkin Elmer) and the following measurement settings were used: excitation filter photometric was 620 nm; excitation from the top; measurement height was 1 mm; number of flashes was 30; number of flashes integrated was 1.
All plates are checked for abnormalities and outliers in the Blank Control (no protein, row 1) and the Neutral Control (no compound, row 2) are excluded using the 3*SD rule.
Table 5 provides IC50 values (μM) for cGAS inhibition obtained for particular examples of the present invention as measured by the above-described assay.

Where [1] appears, read: cGAS inhibition, 25 nM cGAS, 80 μM ATP, 80 μM GTP, 100 nM ISD, 4 hour at RT, Malachite Green phosphate detection, read-out: IC50 cGAS.

T1 sequence (Q8N884 161-522): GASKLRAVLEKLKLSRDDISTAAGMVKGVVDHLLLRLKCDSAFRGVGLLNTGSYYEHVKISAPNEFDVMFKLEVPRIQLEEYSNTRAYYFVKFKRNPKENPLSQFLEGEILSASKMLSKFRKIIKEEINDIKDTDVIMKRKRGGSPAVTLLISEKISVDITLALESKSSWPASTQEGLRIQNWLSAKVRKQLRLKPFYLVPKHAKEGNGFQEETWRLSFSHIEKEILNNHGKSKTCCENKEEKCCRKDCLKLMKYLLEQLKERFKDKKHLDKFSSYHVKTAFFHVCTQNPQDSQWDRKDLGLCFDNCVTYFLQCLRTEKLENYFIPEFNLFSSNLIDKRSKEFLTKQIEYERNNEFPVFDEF

One may read the IC50 as the concentration needed to halve the response being measured. Regarding `CCCc1cc(=O)n2nc(NCc3cc(Nc4nccs4)ccc3Cl)nc2[nH]1` [Example 89, 2-[[2-chloro-5-(thiazol-2-ylamino)phenyl]methylamino]-5-propyl-4H-[1,2,4]triazolo[1,5-a]pyrimidin-7-one], the IC50 under setting [1] stood at 492 nM.

In the case of `CCc1cc(=O)n2nc(NCc3ccc(Cl)cc3Cl)nc2[nH]1` [Example 37, 2-[(2,4-dichlorophenyl)methyl-amino]-5-ethyl-4H-[1,2,4]-triazolo[1,5-a]pyrimidin-7-one], the IC50 under setting [1] worked out at 5160 nM.

Turning to `CCCCc1cc(=O)n2nc(NCc3cc(-c4ccn(C)n4)ccc3Cl)nc2[nH]1` [Example 32, 5-butyl-2-[[2-chloro-5-(1-methyl-pyrazol-3-yl)phenyl]methyl-amino]-4H-[1,2,4]triazolo[1,5-a]pyrimidin-7-one], the IC50 under setting [1] was 162 nM.

As to `CCCCc1cc(=O)n2nc(NCc3cc(-c4ccccc4)nn3C)nc2[nH]1` [Example 44, 5-butyl-2-[(2-methyl-5-phenyl-pyrazol-3-yl)methylamino]-4H-[1,2,4]triazolo[1,5-a]pyrimidin-7-one], the half-inhibitory concentration (IC50) under setting [1] came to 6570 nM.

Regarding `O=c1nc(CCc2ccccc2)[nH]c2nc(NCc3ccc(Cl)cc3Cl)nn12` [Example 101, 2-[(2,4-Dichlorophenyl)methylamino]-5-(2-phenylethyl)-4H-[1,2,4]triazolo[1,5-a][1,3,5]-triazin-7-one], the IC50 worked out at 7790 nM.

Regarding `CCCc1cc(=O)n2nc(NCc3cc(N4CCOCC4)ccc3Cl)nc2[nH]1` [Example 39, 2-[(2-chloro-5-morpholinophen-yl)methylamino]-5-propyl-4H-[1,2,4]triazolo[1,5-a]pyrimidin-7-one], the IC50 under setting [1] amounted to 1040 nM.

Regarding `CCCc1cc(=O)n2nc(NCc3ccc(-c4ccccc4)cc3F)nc2[nH]1` [Example 1, 2-[(2-Fluoro-4-phenyl-phenyl)methylamino]-5-propyl-4H-[1,2,4]triazolo[1,5-a]pyrimidin-7-one], the IC50 under setting [1] was determined as 744 nM.

In the case of `CCCc1cc(=O)n2nc(NCc3cc(-c4ccn(C)n4)ccc3OC)nc2[nH]1` [Example 28, 2-[[2-methoxy-5-(1-methyl-pyrazol-3-yl)phenyl]methyl-amino]-5-propyl-4H-[1,2,4]-triazolo[1,5-a]pyrimidin-7-one], under setting [1], the IC50 was 1910 nM.

The compound `CCCc1cc(=O)n2nc(NCc3ccc(OCc4ccccc4)cc3Cl)nc2[nH]1` [Example 15] registered an IC50 of 4000 nM.

In the case of `Cn1ccc(-c2ccc(CNc3nc4[nH]c(C(F)(F)F)cc(=O)n4n3)cc2)n1` [Example 18, 2-[[4-(1-methylpyrazol-3-yl)-phenyl]methylamino]-5-(trifluoromethyl)-4H-[1,2,4]-triazolo[1,5-a]pyrimidin-7-one], under setting [1], the IC50 was 2820 nM.

Turning to `CCCc1cc(=O)n2nc(NCc3ccc(-c4ccccc4)cc3Cl)nc2[nH]1` [Example 4], the IC50 was 765 nM.

With `CC(Nc1nc2[nH]c(C(F)(F)F)cc(=O)n2n1)c1ccc(-c2ccccc2)cc1` (stereo not drawn) [Example 78, 2-[1-(4-phenylphenyl)ethyl-amino]-5-(trifluoromethyl)-4H-[1,2,4]triazolo[1,5-a]pyrimidin-7-one], under setting [1], the IC50 was 2450 nM.

As to `CCCc1cc(=O)n2nc(NCc3ccc(-n4cccn4)cc3)nc2[nH]1` [Example 5, 5-propyl-2-[(4-pyrazol-1-yl-phenyl)methylamino]-4H-[1,2,4]-triazolo[1,5-a]pyrimidin-7-one], under setting [1], the concentration for half-maximal inhibition (IC50) worked out at 4010 nM.

With `O=c1cc(CC2CCC2)[nH]c2nc(NCc3ccc(Cl)cc3Cl)nn12` [Example 65], the IC50 under setting [1] turned out to be 1590 nM.

The compound `CC(C)c1ccc(CNc2nc3[nH]c(Cc4ccccc4)cc(=O)n3n2)cc1` [Example 73, 5-benzyl-2-[(4-isopropylphen-yl)methylamino]-4H-[1,2,4]-triazolo[1,5-a]pyrimidin-7-one] gave an IC50 of 2700 nM.

On to `O=c1cc(C(F)(F)F)[nH]c2nc(NCc3ccc(-c4ccccc4)cc3)nn12` [Example 75, 2-[(4-phenylphenyl)methyl-amino]-5-(trifluoromethyl)-4H-[1,2,4]triazolo[1,5-a]pyrimidin-7-one], for which the IC50 under setting [1] worked out at 827 nM.

Take `CCCc1cc(=O)n2nc(NCc3cc(-c4cccnn4)ccc3Cl)nc2[nH]1` [Example 85, 2-[(2-Chloro-5-pyridazin-3-yl-phenyl)methylamino]-5-propyl-4H-[1,2,4]triazolo[1,5-a]pyrimidin-7-one]: the IC50 under setting [1] amounted to 2770 nM.

With `O=c1cc(CNc2ccccc2F)[nH]c2nc(NCc3ccccc3Cl)nn12` [Example 80, 2-[(2-Chlorophenyl)methylamino]-5-1(2-fluoroanilino)methyl1-4H-11,2,41triazolo[1,5-a]pyrimidin-7-one], the IC50 under setting [1] was determined as 1920 nM.

The compound `CCCc1cc(=O)n2nc(NCc3cc(-c4cn(C)cn4)ccc3Cl)nc2[nH]1` [Example 30, 2-[[2-chloro-5-(1-methylimid-azol-4-yl)phenyl]methylamino]-5-propyl-4H-[1,2,4]triazolo[1,5-a]pyrimidin-7-one] displayed an IC50 of 444 nM.

Take `CCCc1cc(=O)n2nc(NCc3ccc(OC(C)C)cc3)nc2[nH]1` [Example 53, 2-[(4-propan-2-yloxyphenyl)-methylamino]-5-propyl-4H-[1,2,4]triazolo[1,5-a]pyrimidin-7-one]: under setting [1], the IC50 was found to be 2660 nM.

With `CCCCc1cc(=O)n2nc(NCc3ccn(-c4ccccc4)n3)nc2[nH]1` [Example 47, 5-butyl-2-[(1-phenylpyrazol-3-yl)methylamino]-4H-[1,2,4]-triazolo[1,5-a]pyrimidin-7-one], under setting [1], the IC50 came to 2010 nM.

For `COCCc1cc(=O)n2nc(NCc3cc(-c4ccn(C)n4)ccc3Cl)nc2[nH]1` [Example 51, 2-[[2-chloro-5-(1-methylpyrazol-3-yl)phenyl]methylamino]-5-(2-methoxyethyl)-4H-[1,2,4]-triazolo[1,5-a]pyrimidin-7-one], the IC50 under setting [1] stood at 491 nM.

In turn, `CCCc1cc(=O)n2nc(NCc3cc(-c4ccn(C)n4)ccc3Cl)nc2[nH]1` [Example 57, 2-[[2-chloro-5-(1-methylpyrazol-3-yl)phenyl]methylamino]-5-propyl-4H-[1,2,4]triazolo[1,5-a]pyrimidin-7-one] registered an IC50 of 533 nM.

Consider `CCCCc1cc(=O)n2nc(NCc3cc(C4CC4)on3)nc2[nH]1` [Example 49, 5-butyl-2-[(5-cyclopropylisox-azol-3-yl)methylamino]-4H-[1,2,4]triazolo[1,5-a]pyrimidin-7-one], for which, under setting [1], the IC50 was found to be 4660 nM.

As for `CCCc1cc(=O)n2nc(NCc3ccc(OC4CC4)cc3)nc2[nH]1` [Example 10, 2-[[4-(cyclopropoxy)phenyl]-methylamino]-5-propyl-4H-[1,2,4]triazolo[1,5-a]pyrimidin-7-one], the IC50 under setting [1] amounted to 4080 nM.

For `CCCc1cc(=O)n2nc(OCc3cc(-c4cnn(C)c4)ccc3Cl)nc2[nH]1` [Example 91, 2-[[2-Chloro-5-(1-methylpyrazol-4-yl)phenyl]methoxyl]-5-propyl-4H-[1,2,4]triazolo[1,5-a]pyrimidin-7-one], the IC50 was 2900 nM.

In the case of `CCCc1cc(=O)n2nc(NCc3ccc4ncccc4c3)nc2[nH]1` [Example 22, 5-propyl-2-(6-quinolylmethyl-amino)-4H-[1,2,4]triazolo[1,5-a]pyrimidin-7-one], under setting [1], the IC50 is 3000 nM.

Take `O=c1cc(CC2CCC2)[nH]c2nc(NCc3ccc(-c4ccccc4)cc3)nn12` [Example 3, 5-(cyclobutylmethyl)-2-[(4-phen-ylphenyl)methylamino]-4H-[1,2,4]triazolo[1,5-a]pyrimidin-7-one]: the IC50 under setting [1] was found to be 1570 nM.

As for `CCCCc1cc(=O)n2nc(NCc3cc(-c4ccncn4)ccc3Cl)nc2[nH]1` [Example 86, 5-Butyl-2-[(2-chloro-5-pyrimidin-4-yl-phenyl)methylamino]-4H-[1,2,4]triazolo [1,5-a]pyrimidin-7-one], the IC50 under setting [1] was 79 nM.

`O=c1cc(CNc2ccccc2)[nH]c2nc(NCc3ccc(Cl)cc3Cl)nn12` [Example 79, 5-(Anilinomethyl)-2-[(2,4-dichlorophenyl)methylamino]-4H-[1,2,4]triazolo[1,5-a]pyrimidin-7-one] returned an IC50 of 4610 nM.

`CCCCc1cc(=O)n2nc(NCc3cnn(-c4cnccn4)c3)nc2[nH]1` [Example 45, 5-butyl-2-[(1-pyrazin-2-ylpyr-azol-4-yl)methylamino]-4H-[1,2,4]triazolo[1,5-a]pyrimidin-7-one]: the IC50 under setting [1] worked out at 3530 nM.

Consider `CCCc1cc(=O)n2nc(NC(C)c3ccc(-c4ccccc4)cc3)nc2[nH]1` (stereo not drawn) [Example 56, 2-[1-(4-phenylphenyl)ethyl-amino]-5-propyl-4H-[1,2,4]-triazolo[1,5-a]pyrimidin-7-one], for which the IC50 was found to be 2870 nM.

`CCCc1cc(=O)n2nc(NCc3cc(NC(=O)c4ccon4)ncc3Cl)nc2[nH]1` [Example 90, N-[5-Chloro-4-[[(7-oxo-5-propyl-4H-[1,2,4]triazolo[1,5-a]pyrimidin-2-yl)amino]methyl]-2-pyridyl]isoxazole-3-carboxamide]: under setting [1], the IC50 is 807 nM.

The values above are taken from patent US12509467B2 (Hoffmann-La Roche Inc., priority 2020, dated 2025).
